This assay addresses T1, human FXa (Homo sapiens, UniProt P00742).
T1 construct: FXa solution (human FXa, Haematologic Technologies Inc., Essec Junction, Vt., USA); purchased Haematologic Technologies Inc
Nature of the assay: Measurement of Factor Xa Inhibition (chromogenic substrate method). The class given is biochemical. As to conditions: chromogenic substrate S-2765, 40 min incubation at 37° C., pH 7.4. As for the experimental part:
a) Measurement of Factor Xa Inhibition
The FXa inhibitor potency was measured with a chromogenic substrate method, in a Plato 3300 robotic microplate processor (Rosys AG, CH-8634 Hombrechtikon, Switzerland), using 96-well, half-volume microtiter plates (Costar, Cambridge, Mass., USA; Cat No 3690). Stock solutions of test substance in DMSO (72 μL), 10 mmol/L, alternatively 1 mmol/L were diluted serially 1:3 (24+48 μL) with DMSO to obtain ten different concentrations, which were analyzed as samples in the assay, together with controls and blanks. As control sample melagatran was analysed. The dilutions of each test substance were analyzed consecutively, row-wise on the microtiter plate, with wasp cycles between substances to avoid cross-contamination. […] The final assay concentrations were: test substance 0.0068-133, respectively 0.00068-13.3 μmol/L, S-2765 0.40 mmol/L (KM=0.25 mmol/L) and FXa […]. The linear absorbance increase at 405 n=during 40 min incubation at 37° C. was used for calculation of percent inhibition for the test samples, as compared to references without inhibitor and/or enzyme. […]

T1 sequence (P00742 235-488 limits assumed): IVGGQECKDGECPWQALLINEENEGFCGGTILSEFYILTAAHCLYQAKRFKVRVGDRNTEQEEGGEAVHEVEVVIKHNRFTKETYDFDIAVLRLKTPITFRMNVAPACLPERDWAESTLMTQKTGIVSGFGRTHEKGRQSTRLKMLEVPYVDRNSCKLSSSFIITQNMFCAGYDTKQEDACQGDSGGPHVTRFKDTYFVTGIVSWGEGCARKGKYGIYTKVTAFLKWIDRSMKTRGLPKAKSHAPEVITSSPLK
T1 sequence (P00742 41-179 partner limits assumed): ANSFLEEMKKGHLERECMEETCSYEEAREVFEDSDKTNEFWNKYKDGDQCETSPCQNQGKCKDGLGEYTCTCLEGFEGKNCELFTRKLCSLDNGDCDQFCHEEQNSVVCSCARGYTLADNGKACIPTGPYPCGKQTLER

As to `CCNC(=O)C1CN(S(=O)(=O)c2ccc3c(Cl)c[nH]c3c2)CC(=O)N1CC1CCN(c2ccc(=O)n(C)n2)CC1` (centres unmarked) [Example 4, 4-(3-Chloro-1H-indole-6-sulfonyl)-1-[1-(1-methyl-6-oxo-1,6-dihydro-pyridazin-3-yl)-piperidin-4-ylmethyl]-6-oxo-piperazine-2-carboxylic acid ethylamide], the IC50 came to 5 nM.

The compound `CC(C)OC(=O)C1CN(S(=O)(=O)c2ccc3c(Cl)c[nH]c3c2)CC(=O)N1CC1CCN(c2ccc(=O)n(C)n2)CC1` (centres unmarked) [Example 13, 4-(3-Chloro-1H-indole-6-sulfonyl)-1-[1-(1-methyl-6-oxo-1,6-dihydro-pyridazin-3-yl)-piperidin-4-ylmethyl]-6-oxo-piperazine-2-carboxylic acid isopropyl ester] registered an IC50 of 2.3 nM.

By IC50 is commonly meant the concentration at which inhibition is half-maximal.
